Assay results: PubChem BioAssay AID504539 (Broad Institute, 2011)

Test system: Cell-based prion protein 5' UTR reporter, plate reader
Experiment: prion protein 5' UTR mRNA inhibitors – cell-based, plate reader, cherry-picked samples, dose response (AID 504539)

Compound	AC50
Cc1nn(-c2ccccc2)c(C)c1/C=N/NC(=O)c1cc(-c2ccccc2)n[nH]1	783 nM
Nc1ccc(Oc2cccc(Oc3ccc(N)cc3)c2)cc1	587 nM
Cc1ccc(/C=N/NC(=O)COc2ccccc2-c2ccccc2)cc1	172 nM
COCCn1c(C)cc(C(=O)CSc2nnc(C)s2)c1C	696 nM
Cc1nc2cc(-c3ccccc3)sc2c(=O)n1N	284 nM
CCCSc1ccc2nc(-c3ccccc3)cn2c1	487 nM
C=CCn1c(C)cc(C2=NNC(=NCC)SC2)c1C	< 38 nM
Cc1ccc(C(=O)NCCc2ccccc2)cc1	612 nM
N/C(=N\OC(=O)c1ccccc1Cl)c1ccccn1	558 nM
COc1ccc(-c2nsc3c(N4CCCCC4)ncnc23)cc1	1680 nM
CC(C)(O)/C=C/C(=O)[C@](C)(O)C1[C@H](O)C[C@@]2(C)C3CC=C4C(C[C@H](O)[C@@H](O)C4(C)C)[C@]3(C)C(=O)C[C@]12C (some centres undefined)	900 nM
O=C(OCC(F)(F)F)c1cccc(COc2ccc3ccccc3c2)c1	376 nM
O=C(Nc1nc2ccccc2[nH]1)c1ccccc1F	210 nM
CCOc1ccc(C(=O)O/N=C(\N)c2ccccn2)cc1	134 nM
COc1cccc2c1C(=O)c1c(O)c3c(c(O)c1C2=O)CC(O)(C(=O)CO)CC3OC1CC(N(C)C)C(O)C(C)O1 (centres undefined)	130 nM
CN(NC(=O)c1ccccc1F)c1nc(C(F)(F)F)nc2ccccc12	1320 nM
Cc1cc(C(=O)CN2C(=O)c3ccccc3S2(=O)=O)c(C)n1CC1CCCO1 (centres undefined)	271 nM
CCOC(=O)c1c(C)[nH]c(C(=O)N/N=C/c2ccc(Br)cc2)c1C	378 nM
Cc1ccc(/C=C2\SC(=S)N(CCCC(=O)NNC(=O)c3ccccc3O)C2=O)cc1	428 nM
O=c1cc(-c2ccc(O)cc2)oc2ccc3ccccc3c12	629 nM
COc1ccccc1C(=O)Nc1nc2ccccc2[nH]1	178 nM
COc1ccc(CCc2cc(OC)c(OC)c(OC)c2)cc1	40 nM
O=C(Nc1nccs1)c1cc2c(s1)CCCCC2	128 nM
Cc1ccc2oc(/N=C(\N)NC(=O)C(C)(C)C)nc2c1	< 38 nM
CC(=O)O[C@H]1[C@H]2O[C@]23[C@@H]2CC[C@]4(O)C[C@@H](O)CC[C@]4(C)C2CC[C@]3(C)[C@H]1c1ccc(=O)oc1 (some centres undefined)	120 nM
Cc1ccc(CCC(=O)Nc2ncc(Cc3cc(Cl)ccc3Cl)s2)o1	841 nM

Compound	AC50
O=[N+]([O-])c1nn(-c2ccc3c(c2)OCCO3)n(O)c1=Nc1ccccc1	180 nM
COc1cc(C(=O)N2CCN(c3ccccc3)CC2)c2ccccc2n1	574 nM
Brc1ccc(N=Nc2ccc3ccccc3n2)cc1	543 nM
Cc1ccc(C(=O)O/N=C(\N)c2ccccn2)c(Cl)c1	197 nM
CN1CCc2c(sc(NC(=O)c3ccc([N+](=O)[O-])o3)c2C(N)=O)C1	972 nM
COc1ccc(-n2ncc3c(N(C)C4CCCCC4)ncnc32)cc1	1520 nM
CCCCCN1C=CC(=C2C(=O)c3ccccc3C2=O)C=C1	248 nM
COC(=O)c1c(N)sc(C(=O)NCCc2ccccc2)c1C	413 nM
Cc1cc2sc3ccc(C#CC4(O)CCCCC4)cc3c(=O)c2cc1C	< 38 nM
Nc1ccc2oc(-c3cccc4ccccc34)nc2c1	826 nM
Cc1ccc(C(C)C)c(OCc2ccc(C(=O)N/N=C/c3cccc(O)c3O)cc2)c1	1510 nM
CC(C)c1ccc(-c2nc3ccccc3s2)cc1	< 38 nM
COc1cc(OC)c2c(-c3cccc(-c4ccc(C(C)=O)cc4)c3)cc(=O)oc2c1	1580 nM
CC(C)(C)C(=O)Nc1ccc(NC(=O)c2ccco2)nc1	244 nM
O=C1N(c2ccccc2)C[C@@H]2C[C@@H](c3cc4ccccc4o3)N3CCC[C@@]123	511 nM
O=C(CN1C(=O)c2ccccc2S1(=O)=O)N1CCc2ccccc21	582 nM
Cc1nc2ncccn2c1-c1csc(Nc2ccc(N(C)C)cc2)n1	168 nM
CCCCCOC(=O)c1[nH]c2c(c1C)C(=O)CC(c1ccco1)C2 (centres undefined)	226 nM
CN(c1ccc2nc3ccccc3c(=O)n2n1)C1CCCCC1	574 nM
COc1cc2c(c(OC)c1OC)-c1ccc(OC)c(=O)cc1[C@@H](N(C)CC#CCO)CC2	235 nM
CCC(C)Cn1c(O)cc2nn(-c3nc4ccccc4s3)c(=O)c-2c1C (centres undefined)	62 nM
Cc1ccc(-c2cc3c(N=O)c4ccccc4c-3n[nH]2)cc1	438 nM
COc1cc(SC)ccc1C(=O)Nc1ccc(Br)cn1	500 nM
Cc1cccc(/C=N/Nc2ccc3ccccc3n2)c1	456 nM
O=C(Nc1ccc(-c2nc3cccnc3s2)cc1)C1CCCO1 (centres undefined)	630 nM
CC(C)(C)c1ccc(C(=O)Nc2ccc(CC(=O)O)cc2)o1	312 nM

Compound	AC50
N#Cc1c(NC(=O)CSc2ncn[nH]2)sc2c1CCCCC2	82 nM
C=C1C(=O)O[C@@H]2C[C@@H](C)[C@@H]3C=CC(=O)[C@@]3(C)[C@@H](O)[C@H]12	1580 nM
Nc1ccc(-c2ncc(-c3ccccc3)o2)cc1	145 nM
Cc1ccc(C(=O)O/N=C(\N)c2ccccc2)c(Cl)c1	948 nM
O=C(CCCc1ccccc1)c1ccc2c(c1)OCCO2	344 nM
COc1cc(-c2noc(C)c2-c2ccc(N(C)C)nc2)cc(OC)c1OC	358 nM
COC(C(=O)C(O)C(C)O)C1Cc2cc3cc(OC4CC(OC5CC(O)C(O)C(C)O5)C(O)C(C)O4)c(C)c(O)c3c(O)c2C(=O)C1OC1CC(OC2CC(OC3CC(O)C(OC)C(C)O3)C(O)C(C)O2)C(O)C(C)O1 (centres undefined)	83 nM
O=C(Nc1ccc(N2CCOCC2)cc1)c1cnsn1	486 nM
CCCOc1ccc2cc(-c3ccccn3)c(=O)oc2c1	399 nM
C[C@]12CCC3C(CCC4=CC(O)CC[C@@]43/C=N/O)C1(O)CCC2C1=CC(=O)OC1 (some centres undefined)	308 nM
CCC(C)(O)C(=O)OC1C(=O)OC2CC3C(C)=CC(=O)C(O)C3(C)C3C4(O)OCC23C1C(C)C4O (centres undefined)	178 nM
CC(=O)c1ccc(Oc2cc(C)nc(-n3nc(C)cc3C)n2)cc1	1250 nM
N/C(=N\OCc1ccc([N+](=O)[O-])cc1)c1ccccn1	219 nM
C=CCn1c(C)cc(C2=NNC(=NC(C)(C)C)SC2)c1C	714 nM
Cc1ccc(-c2cn3nc(C)c(C)nc3n2)cc1	485 nM
CSC1SCC2C(=O)N(C)C(C(C)C)C(=O)OCC(NC(=O)c3cnc4ccccc4n3)C(=O)NC(C)C(=O)N(C)C1C(=O)N(C)C(C(C)C)C(=O)OCC(NC(=O)c1cnc3ccccc3n1)C(=O)NC(C)C(=O)N2C (centres undefined)	< 38 nM
CCOc1ccc(S(=O)(=O)Nc2cc(OC)ccc2OC)cc1	873 nM
Cc1ccc(Sc2c(CO)c(-c3ccccc3)nn2C)cc1	528 nM
CC[C@@H](C)[C@H](C(CC(=O)N1CCCC1[C@@H](OC)[C@H](C)C(=O)N[C@H](Cc1ccccc1)c1nccs1)OC)N(C)C(=O)[C@H](NC(=O)[C@@H](C(C)C)N(C)C)C(C)C (some centres undefined)	117 nM
C[C@H]1[C@@H](OS(=O)(=O)O)C[C@@H]2C[C@H]([C@@H](O)c3cc(=O)[nH]c(=O)[nH]3)NC3=NC[C@H]1N32	2560 nM
NC(=O)c1cc([N+](=O)[O-])ccc1NCc1ccc(N)cc1	490 nM
Cc1nn(C(C)(C)C)c(C)c1/C=N/OC(=O)Nc1ccc(Cl)cc1	< 38 nM
CCN(CC)c1ccc2c(cc1=O)[C@@H](NC)CCc1cc(OC)c(OC)c(OC)c1-2	634 nM
Cc1ccc(-c2nnc(SCC(=O)Nc3ccccc3F)o2)cc1	284 nM
CCC(=O)Nc1cc2nn(-c3ccc(C)cc3)nc2cc1C	465 nM
CCC(C)C1NC(=O)C(NC(=O)C(CC(C)C)N(C)C(=O)C2CCCN2C(=O)C(C)O)C(C)OC(=O)C(Cc2ccc(OC)cc2)N(C)C(=O)C2CCCN2C(=O)C(CC(C)C)NC(=O)[C@H](C)C(=O)[C@H](C(C)C)OC(=O)CC1O (some centres undefined)	84 nM

Compound	AC50
Cc1cc([N+](=O)[O-])c2ccccc2[n+]1[O-]	256 nM
Cc1nn(-c2ccccc2Cl)c(Cl)c1/C=N/Nc1cccc(C(=O)O)c1	576 nM
COc1cc(SC)ccc1C(=O)Nc1ncc(C)s1	361 nM
CC(C)CCCCCCCCCCCCC(=O)NCC(=O)NC1C(O)C(O)C(Nc2ncnc3nc[nH]c23)OC1C(O)CO (centres undefined)	87 nM
COc1ccc(CC2NCC(O)C2OC(C)=O)cc1 (centres undefined)	168 nM
CC(=O)OC1C(O)C(C)OC(OC2C(OC(=O)C3CCC4C(C3)OC3(CC(OC(=O)/C=C/c5ccccc5)C(C)CO3)C43CO3)OC(C)C(O)C2OC(C)=O)C1O (centres undefined)	104 nM
C=Cc1cc(OC)c2c(c1)c(=O)oc1c2cc(OC)c2c(O)ccc(C3OC(C)C(O)C(C)(O)C3O)c21 (centres undefined)	211 nM
COC(=O)c1nn(-c2ccc3c(c2)CCN3C(C)=O)cc1O	300 nM
COc1cc(C2c3cc4c(cc3C(OC3OC5COC(c6cccs6)OC5C(O)C3O)C3COC(=O)C23)OCO4)cc(OC)c1O (centres undefined)	657 nM
CCSc1nc(-c2ccccc2)nc(C(Cl)Cl)n1	1060 nM
Cc1nn(-c2nc3ccccc3[nH]2)c(=O)c2ccccc12	145 nM
OCCCNc1cc(-c2ccnc(Nc3cccc(Cl)c3)n2)ccn1	181 nM
CC(=O)CSc1ccc(-c2nc3cc(C)c(C)cc3[nH]2)cn1	434 nM
C[C@H]1CCC/C=C/C2C[C@H](O)CC2[C@H](O)/C=C/C(=O)O1 (some centres undefined)	40 nM
C=CCN=C1NN=C(c2ccc3c(c2)OCCO3)CS1	411 nM
O=C(/C=C/Nc1ccccc1Br)c1ccccn1	281 nM
C(=N\Nc1ccc2ccccc2n1)/c1ccc2c(c1)OCCO2	1220 nM
Clc1ccc2nc(-c3ccccc3)nc(C(Cl)Cl)c2c1	885 nM
CCCOC(=O)c1[nH]c2c(c1C)C(=O)CC(c1cccs1)C2 (centres undefined)	132 nM
C[C@]12CC[C@H](O)C[C@H]1CC[C@@H]1[C@@H]2C[C@@H](O)[C@]2(C)[C@@H](C3=CC(=O)OC3)CC[C@]12O	374 nM
CCn1c(C)nc2cc(-c3nc4n(n3)Cc3ccccc3-4)ccc21	44 nM
Cc1ccoc1C(=O)Nc1ccc(CC(=O)O)cc1	374 nM
CCCCN=C[C@]12CCC(O)CC1(O)CCC1[C@@H]2CC[C@]2(C)[C@H](C3C=CC(=O)O3)CCC12O (some centres undefined)	243 nM
COc1cccc2c1C(=O)c1c(O)c3c(c(O)c1C2=O)CC(O)(C(C)=NNC(=O)c1ccc(Cl)c(Cl)c1)CC3OC1CC(N)C(O)C(C)O1 (centres undefined)	1270 nM
C=C1C(=O)O[C@@H]2C[C@@H](C)[C@@H]3C=CC(=O)[C@@]3(C)[C@@H](OC(=O)CC(=O)O[C@H]3[C@@H]4C(=C)C(=O)O[C@@H]4C[C@@H](C)[C@@H]4C=CC(=O)[C@]43C)[C@H]12	633 nM
COc1ccc(S(=O)(=O)N2c3cc(Cl)ccc3Oc3nc4ccccc4nc32)cc1	1350 nM
